# Results taken from US20100113599A1, “AMPHIPATHIC CARBOXYLATES FOR THE TREATMENT OF IMMUNE-RELATED DISORDERS” (Syndromex Ltd. c/o Yissum Research Development Company, of, priority 2007, published 2010).
# Tests used:
# gp130 transcript = gp130 transcript levels in HepG2 cells (real time RT-PCR); type: cell-based, human; conditions: 200 μM up to 40 h (2, 4, 8, 24, 40 h), normalized with GAPDH
# Procedure: As shown by FIGS. 5-7, treatment of M16αα results in reduction in the protein levels of gp130, which is the tyrosine kinase receptor upstream to STAT3 in this pathway. The inventors thus next examined whether M16αα affects gp130 at the transcription level. Therefore, HepG2 cells were incubated with M16αα (200 μM) for up to 40 h. Total RNA was prepared at 2 h, 4 h, 8 h, 24 h and 40 h, and gp130 transcription was analyzed by real time RT-PCR and normalized with GAPDH.
# HT29 colon cancer cells = assay: BrdU incorporation assay in HT29 colon cancer cells; type: cell-based; conditions: 200 μM
# Procedure: Cells were cultured in Dulbecco's Modified Eagle Medium (DMEM) supplemented with 10% fetal calf serum, glutamine and antibiotics (100,000 units/L penicillin and 100 mg/L streptomycin sulfate).
# The involvement of MEDICA drugs in signal transduction pathways related to immuno-modulatory mechanisms have led the inventors to further investigate the effect of the MEDICA drugs in different disorders associated with abnormal immune reaction. Since cancerous processes may be promoted as a result of interruption of the Th1/Th2 balance, the possible beneficial effect of the MEDICA drugs on tumor proliferation and progression have been next examined. The effect of different concentrations M16αα on cell proliferation was first examined in vitro using the HT29 colon cancer cells as a model for colon cancer. Cells were cultured in the presence of different concentrations of M16αα (50, 100, and 200 μM). Samples obtained from days 1, 2, 3 and 6 were analyzed for cell number using the trypan blue exclusion assay. Proliferation was measured by BrdU incorporation assay.
# U266 cells = assay: Cell cycle arrest markers in MM U266 cells (Western blot); type: cell-based; conditions: 200 μM, 24 h
# Procedure: U266 cells were cultured with 200 μM M16αα in RPMI 1640 medium with 10% FCS for 24 h, lysed, Western blotted and reacted with anti Cyclin D1, p-P53 (S15) and p-Rb as indicated.
# RPMI8226 cells = assay: Cell cycle arrest markers in MM RPMI8226 cells (Western blot); type: cell-based; conditions: 200 μM, 24 h
# Procedure: Cell Cycle arrest of MM RPMI8226 by M16αα. RPMI8226 cells were cultured with 200 μM M16αα, in RPMI 1640 medium with 10% FCS for 24 h, lysed, Western blotted and reacted with anti p-P53(S15) and p-Rb as indicated.
# [1] = test system: Experimental Autoimmune Encephalomyelitis (EAE); assay: EAE (MOG35-55) model for MS, clinical score; type: in vivo, female C57BL/6 mice; conditions: for day of fully established EAE: control day 24
# [2] = test system: liver APP (SAP, SAA, α-fibrinogen) and IL-6 gene expression; assay: Liver Acute Phase Proteins and IL-6 gene expression in EAE mice (real time PCR); type: in vivo; conditions: EAE mice 60 mg/kg/day 12 days by gavage
# Procedure: To further investigate the preventive potential of MEDICA drugs, and specifically of M16αα on EAE model, the effect of these drugs on different pathways involving activation of the immune system have been next examined. Therefore, female mice were treated with M16αα (60 mg/kg/day) or vehicle (1% CMC, the control group) for 12 days by gavage. On the third day EAE has been induced by injection of the MOG35-55 peptide. Nine days following MOG35-55 peptide immunization, mice were anesthesized and sacrificed. Spleenocytes were prepared and were stimulated in vitro with either MOG (100 μg/ml) or LPS (50 μg/ml) and the activation of STAT3 was analyzed by Western blot using anti p-STAT3 (Y705) and anti GP130 antibodies. Liver was immediately frozen in liquid nitrogen and kept at −70 until used for protein and RNA preparation. Total RNA was prepared and analyzed by real time PCR for SAP, SAA, α-fibrinogen and IL-6 gene expression.
# human CRP [3] = assay: Basal plasma human CRP in hCRPtg mice (ELISA); type: in vivo; conditions: 80 mg/kg/d by gavage for ten days, before treatment 0.619
# Procedure: hCRPtg were treated for 10d with M16αα (80 mg/kg/d) dissolved in 1% CMC and administered by gavage. Plasma basal CRP was determined before and at the end of treatment by ELISA.
# Unlike human CRP, mouse CRP is not an acute-phase reactant, and is synthesized hi trace amounts only. However, male hCRP transgene mice (hCRPtg), having the human CRP gene flanked by most of human CRP promoter integrated in their genome, constitutively produce human CRP, with serum levels ranging between 10 and 20 μg/mL.
# (§1) Therefore, hCRPtg mice were treated for ten days with M16αα (80 mg/kg/d) dissolved in 1% CMC and administered by gavage. Plasma CRP was determined by ELISA at the beginning and at the end of treatment. […] The inventors further examined the effect of the MEDICA drugs on LPS-induced CRP. Therefore, CRP expression was analyzed in hCRPtg mice treated with M16αα 0.06% (W/W) (about 60 mg/kg body weight/day) for fourteen days and challenged with LPS (25 μg/mice) for the last 18 h. As illustrated by the histogram of FIG. 25, treatment with M16αα decreases LPS-induced levels of human CRP.
# human CRP [4] = assay: LPS-induced human CRP in hCRPtg mice; type: in vivo; conditions: 0.06% (W/W) (about 60 mg/kg body weight/day) for fourteen days, LPS 25 μg/mice last 18 h
# Procedure: The effect of M16αα in decreasing human CRP induced by LPS injection was analyzed in hCRPtg mice treated with M16αα for 14 days and challenged with LPS.
# as §1
compound,measurement,setting,value
"CC(C)(CCCCCCCCCCCCC(C)(C)C(=O)O)C(=O)O [M16αα, 2,2,15,15-tetramethyl-hexadecanedioic acid]",gp130 transcript levels,gp130 transcript,remained unaffected
same,BrdU incorporation,HT29 colon cancer cells,significantly reduces
same,Cyclin D1 expression,U266 cells,reduction
same,phosphorylated Rb,U266 cells,reduction
same,phosphorylated p53,U266 cells,increase
same,phosphorylated Rb,RPMI8226 cells,reduction
same,phosphorylated p53,RPMI8226 cells,increase
same,average maximal clinical score,"[1]; Preventive Group A: 30 mg/kg BW daily from three days prior to MOG challenge to day 37, control group D 4.3",1.3
same,average maximal clinical score upon termination of treatment,"[1]; Preventive Group A: after termination of treatment (vehicle day 37 to day 52), control group D 4.3",~2.0
same,average maximal clinical score,"[1]; group B: 30 mg/kg BW daily from seventh day following MOG injection to day 52, control group D 4.3",4.3
same,day of fully established EAE,[1]; group B: 30 mg/kg BW daily from seventh day to day 52,40 days
same,day of fully established EAE,[1]; group C: 30 mg/kg BW daily from first day to day 52,40 days
same,average maximal clinical score,"[1]; group C: 30 mg/kg BW daily from first day to day 52, control group D 4.3",3.8
same,liver APP and IL-6 gene expression,[2],robustly suppressed
same,basal levels of human CRP in plasma at the end of treatment,human CRP [3],0.396
same,LPS-induced levels of human CRP,human CRP [4],decreases
